Consider one substance from PMC4735555, “Crystal structure of the N-myristoylated lipopeptide-bound MHC class I complex” (Nature Communications, 2016).

For one assay, the system named is 2N5.1. The assay can be described thus: 2N5.1 response to C14nef5 in the presence of rhesus PBMCs and its blocking by mAbs. Particulars: rhesus PBMCs derived from a positive donor. The assay is classed as cell-based, rhesus macaque. Here is the method: The rhesus macaques (Macaca mulatta) used in this study were treated humanely in accordance with institutional regulations, and the experimental protocols were approved by the Committee for Experimental Use of Non-human Primates at the Institute for Virus Research and at the Primate Research Institute, Kyoto University. Rhesus macaque monocytes were isolated from PBMCs using MACS MicroBeads (Miltenyi Biotec, Bergisch Gladbach, Germany) conjugated with cross-reactive anti-human CD14 Abs. After immunizing BALB/c mice with these monocytes, spleen cells were obtained and fused with SP2/0 myeloma cells using the standard polyethylene glycol method. Culture supernatants of the hybridoma clones were tested at a dilution of 1:1 for their reactivity to rhesus macaque monocytes by flow cytometry and positive clones were subjected to T-cell assays to assess blocking activities.

Another assay relates to Mamu-B*098. Briefly: X-ray crystal structure of the Mamu-B*098:C14nef5 complex. The assay is classed as binding, rhesus macaque. The following applies: crystal structure at 1.76 Å, Mamu-B*098 with Cys167 mutated to Ser, rhesus β2m; PDB 4ZFZ. Here is the method:
Recombinant proteins were prepared as described previously with some modifications. Briefly, DNA constructs encoding the ectodomain of Mamu-B*098 (from Gly1 to Pro276 with the unpaired Cys167 mutated to Ser and a Met-Ala added to the N terminus) and rhesus β2m (from Ile1 to Met99 with a Met-Ala added to the N terminus) were synthesized and cloned into pLM1. The expression plasmids were introduced into the E. coli Rosetta 2 (DE3) pLysS strain (Novagen, Madison, WI) and colonies were inoculated into a Terrific Broth supplemented with 50 μg ml^−1 ampicillin. Isopropyl-β-D-thiogalactoside was added to the culture at a final concentration of 0.5 mM when the OD600 value of the culture reached 0.5. After an additional 6-h culture, bacteria were harvested and lysed in a buffer containing 50 mM Tris-HCl pH 8.0, 1 mM EDTA, 0.1% NaN3, 10 mM dithiothreitol (DTT), 100 mM NaCl, 1% Triton X-100, 1% deoxycholate and 5 mM MgCl2, followed by a treatment with DNase I. After 6 h of stirring, the samples were centrifuged and the pellets were washed twice with a wash buffer containing 50 mM Tris-HCl pH 8.0, 1 mM EDTA, 0.1% NaN3, 1 mM DTT, 100 mM NaCl and 0.5% Triton X-100, and once with a rinse buffer containing 50 mM Tris-HCl pH 8.0, 1 mM EDTA, 0.1% NaN3 and 1 mM DTT. […]

Regarding “C14-Gly-Gly-Ala-Ile-Ser [C14nef5, N-myristoylated 5-mer peptide (C14-Gly-Gly-Ala-Ile-Ser; C14nef5) derived from the SIV Nef protein]”, the “2N5.1 response (IFN-γ production) in the presence of rhesus PBMCs” value with 2N5.1 was “responded to C14nef5”. For the same substance, the “electron density in the Ag-binding groove of Mamu-B*098” value with Mamu-B*098 is listed as “Continuous electron density corresponding to C14nef5 was observed in the Ag-binding groove”.
